Experimental data from patent US9610292B2, “Uses for 4,17β-dihydroxyandrost-4-ene-3-one” (MaBel GmbH, priority 2006, dated 2017).

Columns and labels:
MCF-7 cells = experiment: Inhibition of MCF-7 cell proliferation (counting of vital cells); format: cell-based, human; details: 10^-7 M, 10^-8 M and 10^-9 M; cell counting after 3, 6 and 9 days; compared with DHT and control
Description: MCF-7 cells were grown in RPMI 1640 medium at 37° C. to a cell number of about 1*10^5 cells/ml. Then, in quadruple identical MCF-7 cell samples, there were added either dihydrotestosterone (DHT) or 4-hydroxytestosterone (4-OHT), to obtain different concentrations thereof, namely 10^−7 M, 10^−8 M or 10^−9 M, and further growth of cells were determined by counting of vital cells. During the course of incubation at 37° C., cell counting were performed after 3, 6 and 9 days. For control, growth of MCF-7 cells were determined without addition of an active agent.
The results on an inhibition of MCF-7 cell proliferation are shown in FIGS. 1A, 1B and 1C for the compound concentrations of 10^−7 M, 10^−8 M and 10^−9 M of either DHT or 4-OHT, respectively, and compared with the control.

[1] = tested on: normal or mastopathic breast tissue; experiment: Double blind clinical test, topical cream, patients with non-malign disease states; format: in vivo, human; details: 4 patients having non-malign disease states, topical administration
Description: (§1) All 10 female patients were topically and locally treated using 4-hydroxytestosterone as active agent, by administering of a cream as described in Example 2 locally to target skin portions of the breasts. After continuing daily topical administration once a day during an administration period of 3 months, clinical investigations on therapeutic effects were performed.

[2] = tested on: malign breast carcinoma (C. mammae); experiment: Double blind clinical test, topical cream once a day for 3 months, patients with malign breast carcinoma; format: in vivo, human; details: for Clinical Remission: daily topical cream, 3 months
Description: Double blind clinical tests were conducted with a group of 10 female patients. In this clinical testing, particular attention was paid to hormone receptor statuses of patients' target breast cancer tissue regarding progesterone receptor (PR) and in particular regarding estrogen receptor (ER); The cancers of the patients were assumed to be predominantly androgen receptor (AR) positive. Among this group, six patients had histologically ascertained malign breast carcinoma (C. mammae). […] In a sixth patient, the presence of a malign breast carcinoma was ascertained, but the amount of cancer tissue was too low to determine receptor status.
as §1
The results of the 6 patients having malign breast carcinoma are shown in the following Table 1, together with the receptor status determined for patient nos. 1 to 5.

Question: `C[C@]12CC[C@H]3[C@@H](CCC4=C(O)C(=O)CC[C@@]43C)[C@@H]1CC[C@@H]2O` [4-hydroxytestosterone, 4,17β-dihydroxyandrost-4-ene-3-one] was tested. Which “inhibitory effect on MCF-7 cell proliferation” value (MCF-7 cells) did it give?
Answer: The value was “significantly enhanced inhibitory effect”.

Question: And the “tissue reduction of normal or mastopathic appearing tissues” value [1]?
Answer: The value was “clear tendency for tissue reduction”.

Question: And the “Clinical Remission” value ([2]; Patient # 1, ER 0, PR 0, Her2neu 0)?
Answer: Its value is “yes”.

Question: And the “Clinical Remission” value ([2]; Patient # 3, ER 0, PR 0, Her2neu 0)?
Answer: Its value is “yes”.

Question: What about the “Clinical Remission” value ([2]; Patient # 6, receptor status unknown) of the same compound?
Answer: The value was “yes”.

Question: What about the “efficacy in shrinking cancerous tissues” value ([2]; clinical study overall, including ER negative cancers) of the same compound?
Answer: The value was “excellent efficacy”.
